Results on 2 compounds are retold here after patent US7297506B2, “Assay for nucleotide triphosphate using a modified nucleoside diphosphate kinase comprising a fluorescent label” (Medical Research Council, priority 1999, dated 2007).

Where two headings read alike, the source gives them in different places.

One series deals with human rho protein. Briefly: Nucleotide exchange and GTP hydrolysis of rho measured with IDCC-NDPK˜P fluorescence. The format is biochemical. As to conditions: 2 μM Rho.GDP, 10 μM GTP, 30° C., pH 7.6. Here is the method: The rate of nucleotide exchange from a small G protein, rho (which also has GTPase activity), was determined in solution. The rate of hydrolysis was also obtained indirectly.
Human rho protein was prepared in a form containing tightly-bound GDP. In the presence of excess added GTP, nucleotide exchange occurs such that GDP is released into free solution where it can be measured according to the invention. Once GTP is bound to rho, its hydrolysis is slowly catalysed by the protein at a steady-state rate. This creates more GDP, which is measured once it is released.
Fluorescence emission was recorded for a 200 μl solution containing 20 mM Tris/HCl, pH 7.6, 1 mM MgCl2, 100 mM (NH4)2SO4, 10 μM GTP, and 2 μM IDCC-NDPK˜P. The reaction was started at t=0 by adding 2 μM Rho.GDP. Excitation was at 440 nm with the emission monochromator set to 475 nm. The temperature was 30° C. The data were normalised using the fluorescence change for 1 μM GDP obtained from a titration of IDCC-NDPK˜P with different GTP/GDP ratios. […] The exponential “burst” represents the exchange of GDP bound to rho for GTP. The linear phase represents steady state: exchange of further GTP onto rho is limited by hydrolysis to GDP.

Series [1] in a line: Fluorescence quantum yield determination. Format: physicochemical. As to conditions: in buffer. Here is the method: There is a shift of 6 nm in the absorbance maxima of the fluorophore between IDCC-NDPK and IDCC-NDPK˜P, but only 2 nm in the emission maxima. The fluorescence quantum yields for the two forms of the labelled enzyme were determined using as reference the known value of 0.83 for Coumarin 314 in ethanol.

For series [2] the following is noted: in ethanol, known value; cited from earlier work.

For “Rho.GDP: human rho protein, a small G protein with GTPase activity, prepared with tightly-bound GDP”, in the series with human rho protein, the “rate constant of exponential phase (exchange of bound GDP for GTP)” value was found to be 0.196 min⁻¹ and the “slope of linear phase (steady state GTP hydrolysis)” value is 41.2 nM GDP min^−1.
Turning to `CCOC(=O)c1cc2cc3c4c(c2oc1=O)CCCN4CCC3` [Coumarin 314], the fluorescence quantum yield in series [1] is 0.52; in series [2], 0.83.
